Measured values published in patent US10584098B2, “Quinolone-3-diarylethers” (OREGON HEALTH & SCIENCE UNIVERSITY, priority 2015, dated 2020).
pIC50: −log10 of the molar value. Like-named read-outs stand apart in the source and are kept apart here.

Assays:
[1] = tested on: P. falciparum strain Tm90-C2B; test: SYBR green antiplasmodial assay, strain Tm90-C2B; type: cell-based, Plasmodium falciparum; details: read-out: IC50, nM, P. falciparum strain Tm90-C2B
Description: (§1) Automated pipetting and dilution was carried out with the aid of a programmable Precision 2000 robotic station (BioTek, Winooski, Vt.). An initial parasitemia of 0.2% was obtained by addition of normal uninfected red cells to a stock culture of asynchronous parasite infected red cells (PRBC).

[2] = tested on: P. falciparum strain D6; test: SYBR green antiplasmodial assay, strain D6; type: cell-based, Plasmodium falciparum
Description: as §1

[3] = tested on: P. falciparum strain Dd2; test: SYBR green antiplasmodial assay, strain Dd2; type: cell-based, Plasmodium falciparum; details: read-out: IC50, nM, P. falciparum strain Dd2
Description: as §1

[4] = tested on: P. yoelii (Kenya strain, MR4 MRA-428); test: Single dose cure (SDC) of patent blood stage murine malaria infection; type: in vivo, Plasmodium yoelii; details: mice; for minimal effective dose: Plasmodium yoelii, po, 720 h, single dose, read-out: Lowest fully effective single dose cure P. yoelii; for lowest fully protective single-dose cure (SDC): single oral dose in PEG-400, parasite free 30 days
Description: As described above, mice (female, CF1, Charles River Labs) were infected intravenously with 10^5 P. yoelii (Kenya strain, MR4 MRA-428/Murine LDH Elevating Virus-Free) parasitized erythrocytes from a donor animal. Drug administration commenced the day after the animals were inoculated (Day 1). The test compounds were dissolved in PEG-400 and administered by oral gavage once. On the 5th day blood films were prepared and the extent of parasitemia was determined by microscopic examination of Giemsa stained smears. Animals remaining parasite free 30 days after the last drug dose were considered cured of their infection.

[5] = molecular target: Plasmodium falciparum cytochrome bc1 complex (Plasmodium falciparum, UniProt Q02768); test: Inhibition of cytochrome bc1 complex; type: biochemical
[6] = Stability of prodrug to metabolism
[7] = In vivo efficacy of earlier prodrug versus parent compound; details: compared to the parent compound ELQ-300
[8] = human, microsomes
Description: The loss of substrate was monitored by LC/MS/MS. Midazolam was monitored as a well characterized positive control. Midazolam represents a drug with comparatively low metabolic stability. Incubations were conducted in the absence of the NADPH regenerating system to monitor for potential P450-independent metabolism.

[9] = tested on: P. yoelii; test: 4-day suppression test in P. yoelii infected mice; type: in vivo, Plasmodium yoelii; details: dosing on 4 sequential days, smears on Day 5
[10] = Oral bioavailability in mice; type: in vivo; details: relative to ELQ-300
[11] = Chemical stability in solvent / acidic conditions; type: physicochemical
Description: Ethyl chloroformate is then added dropwise. The reaction goes to completion in minutes upon the addition of the chloroformate forming one regioisomer in very high yield. […] Results are summarized in Scheme 1

[12] = Oral bioavailability in rats; type: in vivo; details: relative to ELQ-300
[13] = tested on: P. falciparum; test: In vitro intrinsic antiplasmodial activity against all test strains; type: cell-based, Plasmodium falciparum
[14] = Plasmodium falciparum, TM90, 72 h, resistant to chloroquine and atovaquone
[15] = Plasmodium falciparum, D6, 72 h; read-out: IC50, nM, P. falciparum strain D6
[16] = Plasmodium falciparum, DD2, 72 h, multidrug resistant strain
[17] = Plasmodium falciparum, D6; read-out: P. falciparum strain D6, IC50
[18] = single oral doses in the range of 1 to 20 mg/kg
[19] = 72 h, resistant to chloroquine and atovaquone
[20] = 72 h, chloroquine sensitive strain; Table 1 of Example 4; read-out: IC50, nM, P. falciparum strain D6
[21] = 72 h, multidrug resistant strain

SMILES: O=C1C(O)=C([C@H]2CC[C@H](c3ccc(Cl)cc3)CC2)C(=O)c2ccccc21 [Atovaquone, reference compound]
- IC50 [1, 14]: > 250 nM
- IC50 [2, 15]: 0.2 nM
- IC50 [3, 16]: 0.2 nM

SMILES: CCN(CC)CCCC(C)Nc1ccnc2cc(Cl)ccc12 (centres unmarked) [Chloroquine, reference compound]
- IC50 ([1]; Plasmodium falciparum, TM90, 72 h): 98 nM
- IC50 ([2]; Plasmodium falciparum, D6, 72 h, read-out: IC50, nM, P. falciparum strain D6): 10 nM
- IC50 ([3]; Plasmodium falciparum, DD2, 72 h): 137 nM

SMILES: COc1cc2[nH]c(C)c(-c3ccc(Oc4ccc(OC(F)(F)F)cc4)cc3)c(=O)c2cc1Cl [ELQ-300, reference compound]
- IC50 [1, 14]: 2 nM
- IC50 [2, 15]: 6 nM
- pIC50 [2, 17]: 8.51
- minimal effective dose [4]: > 20 mg/kg
- parasitemia suppression [4, 18]: suppressed parasitemia completely
- recrudescence [4, 18]: recrudescence occurred within two weeks of dosing
- inhibition of cytochrome bc1 complex [5]: sub-nanomolar
- IC50 [3, 16]: 6 nM

SMILES: COc1cc2nc(C)c(-c3ccc(Oc4ccc(OC(F)(F)F)cc4)cc3)c(OC(=O)N(C)C)c2cc1Cl [ELQ-301]
- stability to metabolism [6]: stable to metabolism
- in vivo efficacy compared to ELQ-300 [7]: inferior in vivo efficacy

SMILES: COc1cc2nc(C)c(-c3ccc(Oc4ccc(OC(F)(F)F)cc4)cc3)c(OCOC(=O)OC(C)C)c2cc1Cl [ELQ-330]
- IC50 [1, 19]: 47 nM
- IC50 [2, 20]: 62 nM
- lowest fully protective single-dose cure (SDC) [4]: 5 mg/kg
- IC50 [3, 21]: 38 nM

SMILES: CCOC(=O)OCOc1c(-c2ccc(Oc3ccc(OC(F)(F)F)cc3)cc2)c(C)nc2cc(OC)c(Cl)cc12 [ELQ-331]
- t1/2 [8]: 37.7 min
- IC50 [1, 19]: 4 nM
- IC50 [2, 20]: 6 nM
- lowest fully protective single-dose cure (SDC) [4]: 2.5 mg/kg

SMILES: COC(=O)Oc1c(-c2ccc(Oc3ccc(OC(F)(F)F)cc3)cc2)c(C)nc2cc(OC)c(Cl)cc12 [ELQ-336, 6-chloro-7-methoxy-2-methyl-3-(4-(4-(trifluoromethoxy)phenoxy)phenyl)quinolin-4-yl methyl carbonate]
- pIC50 [2, 17]: 8.60
- minimal effective dose [4]: 4 mg/kg

SMILES: CCOC(=O)Oc1c(-c2ccc(Oc3ccc(OC(F)(F)F)cc3)cc2)c(C)nc2cc(OC)c(Cl)cc12 [ELQ-337, 6-chloro-7-methoxy-2-methyl-3-(4-(4-(trifluoromethoxy)phenoxy)phenyl)quinolin-4-yl ethyl carbonate]
- ED50 [9]: 0.02 mg/kg/day
- ED90 [9]: 0.05 mg/kg/day
- ED99 [9]: 0.075 mg/kg/day
- oral bioavailability [10]: enhanced over ELQ-300
- pIC50 [2, 17]: 8.60
- minimal effective dose [4]: 3 mg/kg
- animals in which single dose failed ([4]; 1 mg/kg, on Day 12): 4/4
- single dose cures (SDC), animals cured ([4]; doses as low as 3 mg/kg): 4/4
- chemical stability ([11]; 50/50 mixtures of methanol and water at pH 3 and 8 overnight): chemically stable
- oral bioavailability [12]: enhanced over ELQ-300
- IC50 values against all test strains [13]: low to sub-nanomolar range

SMILES: COCCOC(=O)Oc1c(-c2ccc(Oc3ccc(OC(F)(F)F)cc3)cc2)c(C)nc2cc(OC)c(Cl)cc12 [ELQ-354, 6-chloro-7-methoxy-2-methyl-3-(4-(4-(trifluoromethoxy)phenoxy)phenyl)quinolin-4-yl(2-methoxyethyl) carbonate]
- pIC50 [2, 17]: 8.52
- minimal effective dose [4]: 3 mg/kg

SMILES: COc1cc2nc(C)c(-c3ccc(Oc4ccc(OC(F)(F)F)cc4)cc3)c(OC(=O)OC3CCS(=O)(=O)C3)c2cc1Cl (centres unmarked) [ELQ-355, 6-chloro-7-methoxy-2-methyl-3-(4-(4-(trifluoromethoxy)phenoxy)phenyl)quinolin-4-yl (1,1-dioxidotetrahydrothiophen-3-yl) carbonate]
- pIC50 [2, 17]: 8.41
- minimal effective dose [4]: 4 mg/kg

SMILES: COc1cc2nc(C)c(-c3ccc(Oc4ccc(OC(F)(F)F)cc4)cc3)c(OC(=O)C(C)(C)C)c2cc1Cl [ELQ-357, 6-chloro-7-methoxy-2-methyl-3-(4-(4-(trifluoromethoxy)phenoxy)phenyl)quinolin-4-yl pivalate]
- pIC50 [2, 17]: 8.46
- minimal effective dose [4]: 4 mg/kg

SMILES: COc1cc2nc(C)c(-c3ccc(Oc4ccc(OC(F)(F)F)cc4)cc3)c(OC(=O)OC(C)(C)C)c2cc1Cl [ELQ-358, tert-butyl (6-chloro-7-methoxy-2-methyl-3-(4-(4-(trifluoromethoxy)phenoxy)phenyl)quinolin-4-yl) carbonate]
- pIC50 [2, 17]: 8.22
- minimal effective dose [4]: > 4 mg/kg

SMILES: C=CCOC(=O)Oc1c(-c2ccc(Oc3ccc(OC(F)(F)F)cc3)cc2)c(C)nc2cc(OC)c(Cl)cc12 [ELQ-359, allyl (6-chloro-7-methoxy-2-methyl-3-(4-(4-(trifluoromethoxy)phenoxy)phenyl)quinolin-4-yl) carbonate]
- pIC50 [2, 17]: 8.60
- minimal effective dose [4]: 4 mg/kg

SMILES: COc1cc2nc(C)c(-c3ccc(Oc4ccc(OC(F)(F)F)cc4)cc3)c(OC(C)=O)c2cc1Cl [ELQ-370]
- chemical stability to acid [11]: chemically unstable to mildly acidic conditions
- stability in methanol [11]: decomposes rapidly in methanol

SMILES: COc1cc2nc(C)c(-c3ccc(Oc4ccc(OC(F)(F)F)cc4)cc3)c(OC(=O)OCC3COC(=O)O3)c2cc1Cl (centres unmarked) [ELQ-373, 6-chloro-7-methoxy-2 methyl-3-(4-(4-(trifluoromethoxy)phenoxy)phenyl)quinolin-4-yl ((2-oxo-1,3-dioxolan-4-yl)methyl) carbonate]
- pIC50 [2, 17]: 8.51
- minimal effective dose [4]: 4 mg/kg

SMILES: COc1cc2nc(C)c(-c3ccc(Oc4ccc(OC(F)(F)F)cc4)cc3)c(OC(=O)OCC3COC(C)(C)O3)c2cc1Cl (centres unmarked) [ELQ-374, 6-chloro-7-methoxy-2-methyl-3-(4-(4-(trifluoromethoxy)phenoxy)phenyl)quinolin-4-yl ((2,2-dimethyl-1,3-dioxolan-4-yl)methyl) carbonate]
- pIC50 [2, 17]: 8.57
- minimal effective dose [4]: 4 mg/kg

SMILES: COc1cc2nc(C)c(-c3ccc(Oc4ccc(OC(F)(F)F)cc4)cc3)c(OC(=O)C(C)C)c2cc1Cl [ELQ-375, 6-chloro-7-methoxy-2-methyl-3-(4-(4-(trifluoromethoxy)phenoxy)phenyl)quinolin-4-yl isobutyrate]
- pIC50 [2, 17]: 8.09
- minimal effective dose [4]: 4 mg/kg

SMILES: COc1cc2nc(C)c(-c3ccc(Oc4ccc(OC(F)(F)F)cc4)cc3)c(OC(=O)c3ccccc3)c2cc1Cl [ELQ-379, 6-chloro-7-methoxy-2-methyl-3-(4-(4-(trifluoromethoxy)phenoxy)phenyl)quinolin-4-yl benzoate]
- pIC50 [2, 17]: 8.60

SMILES: CCOC(=O)OC(C)Oc1c(-c2ccc(Oc3ccc(OC(F)(F)F)cc3)cc2)c(C)nc2cc(OC)c(Cl)cc12 (centres unmarked) [ELQ-387]
- IC50 [1, 19]: 231 nM
- IC50 [2, 20]: 326 nM
- IC50 [3, 21]: 141 nM
